Measurements reported in US20020156023A1, “Lometrexol combination therapy” (Tularik Inc., priority 2000, published 2002).
Structures can show the parent of a compound that is named as a salt.

Experiments:
[1] = cited from earlier work
[2] = cited from earlier work; remark: listed apart in the source
[3] = Storage stability of drug product / reconstituted solution; format: physicochemical; conditions: reconstituted with 0.9% sodium chloride to approximately 10 mg/mL; vials contain no preservative
Experimental: Lometrexol sodium for injection is supplied for the study as a lyophilised off-white crystalline solid in single-use vials containing either 50 mg or 200 mg of lometrexol sodium. Vials are stored at room temperature and protected from light. Lometrexol sodium is reconstituted with 0.9% sodium chloride for injection to a concentration of approximately 10 mg/mL. […] Lometrexol sodium is not known to be a vesicant. Lometrexol sodium is administered on Day 1 of every 21-day cycle as a rapid (i.e., 30 to 60 seconds) intravenous bolus immediately prior to the dose of carboplatin. At each dose level shown in Table 1, the appropriate dose of lometrexol sodium is based on the patient's actual calculated body surface area (BSA) at the beginning of each cycle. Note: If the patient's BSA is >2.0 m^2 the dose is calculated using a maximum BSA of 2.0 m^2.
Doxorubicin HCl is available commercially available from several manufacturers in liquid or lyophilised form. The lyophilised powder is stable for 2 years when stored at room temperature and away from direct light. The commercial solution formulations must be stored under refrigeration. […] At each dose level shown in Table 2, the appropriate dose of doxorubicin is based on the patient's actual calculated body surface area (BSA) at the beginning of each 21-day cycle. […]

[4] = tested on: MDA-MB-231 cells; test: MTT cell proliferation assay, kinase inhibitor plus lometrexol, MDA-MB-231 cells; format: cell-based; conditions: showing only mild growth inhibition by EGF
Experimental: A549 and MDA-MB-231 cells were obtained from the ATCC. Cells were propagated in 75 cm^2 flasks in RPMI 1640 medium with 10% fetal bovine serum, 1% penicillin/streptomycin, and 1% glutamine. To initiate the experiment, cells were plated into 96-well plates at 3000 cells/well with the top and bottom rows containing media only as a negative control. The cells were incubated at 37° C. for 15 hours to allow the cells to adhere. After 15 hours, freshly prepared solutions of lometrexol and the appropriate kinase inhibitor (AG1478 or indirubin-3′-monoxime) at the desired dose were added to the media in varying concentrations in a 5×8 matrix of concentrations. Each plate also contained wells that contained medium only and no added compound. The cells were then incubated for 48 hours with the compounds. The relative cell number was determined using the cell proliferation assay reagent MTT. This reagent is converted by mitochondrial dehydrogenases to a colored formazan product that is then quantified by spectrophotometric analysis. […] The relative effect of the compounds was determined by the percentage of the untreated control cells. […]

[5] = tested on: phosphorylated EGFR; test: EGFR phosphorylation in stimulated A549 cells (immunoprecipitation, western blot, densitometry); format: cell-based; conditions: 24 hours, then 10% fetal bovine serum + 50 ng/ml EGF for 3 hours, FIG. 4
Experimental: The A549 lung adenocarcinoma cell line was grown under normal cell culture conditions. The cells were plated in 100 mm^2 dishes in RPMI 1640 culture medium containing 1% penicillin/streptomycin, 1% glutamine and 10% fetal bovine serum. The cells were allowed to grow to >95% confluence. Thereafter, the cells were rinsed twice with phosphate-buffered saline followed by the addition of low-serum medium (RPMI 1640 with 1% penicillin/streptomycin and 0.5% fetal bovine serum).
Lometrexol was added in amounts sufficient to achieve incubation concentrations of 0.004, 0.02, 0.1, 0.5 and 2.5 μg/ml. The cells were incubated in the low-serum medium with lometrexol for 24 hours. After the 24-hour incubation, the concentration of fetal bovine serum was increased to 10%, and 50 ng/ml EGF was added to the cells in the presence of lometrexol. The cells were incubated with these stimulants (fetal bovine serum and EGF) for 3 hours. […] The immunoprecipitated protein was separated by SDS-PAGE, and the amount of phosphorylated EGFR was determined by western blot analysis of the resulting gel using chemiluminescent detection. The blot was probed with an antibody that is specific for the activated, phosphorylated form of EGFR (Chemicon, Temecula, Calif.), and the resulting photographic film was analyzed by densitometry.

[6] = tested on: A549 cells; test: MTT cell proliferation assay, kinase inhibitor plus lometrexol, A549 cells; format: cell-based; conditions: for IC50 in A549 cells in the presence of increasing concentrations of lometrexol: 48 hours incubation, MTT, IC50 calculated from the untreated cells, FIG. 1 and FIG. 2
Experimental: A549 and MDA-MB-231 cells were obtained from the ATCC. Cells were propagated in 75 cm^2 flasks in RPMI 1640 medium with 10% fetal bovine serum, 1% penicillin/streptomycin, and 1% glutamine. To initiate the experiment, cells were plated into 96-well plates at 3000 cells/well with the top and bottom rows containing media only as a negative control. The cells were incubated at 37° C. for 15 hours to allow the cells to adhere. After 15 hours, freshly prepared solutions of lometrexol and the appropriate kinase inhibitor (AG1478 or indirubin-3′-monoxime) at the desired dose were added to the media in varying concentrations in a 5×8 matrix of concentrations. Each plate also contained wells that contained medium only and no added compound. The cells were then incubated for 48 hours with the compounds. The relative cell number was determined using the cell proliferation assay reagent MTT. This reagent is converted by mitochondrial dehydrogenases to a colored formazan product that is then quantified by spectrophotometric analysis. […] The relative effect of the compounds was determined by the percentage of the untreated control cells.
The IC50 value was calculated from the untreated cells. […]. […] The data are presented as % growth relative to cells treated with lometrexol alone. The total incubation time with the compounds was 48 hours.

[7] = tested on: ATP concentration in A549 cells; test: Cellular ATP by luminescent method CellTiter Glo in A549 cells; format: cell-based; conditions: 24 hours incubation with lometrexol, FIG. 5, average of triplicate measurements
Experimental: A549 cells were propagated in 75 cm^2 flasks in RPMI 1640 medium with 10% fetal bovine serum, 1% penicillin/streptomycin, and 1% glutamine. To initiate the experiment, cells were plated into 96-well plates at 3000 and 10,000 cells/well with the top and bottom rows containing media only as a negative control. The cells were incubated at 37° C. for 15 hours to allow the cells to adhere. After 15 hours, freshly prepared solutions of lometrexol at the desired dose were added to the media in varying concentrations. Each plate also contained wells that contained medium only and no added compound. The cells were then incubated for 24 hours and the amount of ATP was determined by a luminescent method, CellTiter Glo™ (Promega, Madison, Wis.). Concurrently, the cell number was determined in duplicate rows so that the relative ATP concentration per number of cells could be determined. As depicted in FIG. 5 (average of triplicate measurements), the ATP concentration per million cells was decreased in cells treated with lometrexol at concentrations similar to those where the EGFR phosphorylation was effected and at concentrations similar to those which potentiate kinase inhibitors.

Compound: COc1cccc2c1C(=O)c1c(O)c3c(c(O)c1C2=O)C[C@@](O)(C(=O)CO)C[C@@H]3O[C@H]1C[C@H](N)[C@H](O)[C@H](C)O1 [Doxorubicin HCl]
- storage time of reconstituted solution ([1]; reconstituted with sterile water for injection or 0.9% sodium chloride): up to 24 hours
- stability of lyophilised powder ([1]; stored at room temperature and away from direct light): 2 years

Compound: Nc1ccn([C@@H]2O[C@H](CO)[C@@H](O)C2(F)F)c(=O)n1 [Gemcitabine HCl]
- solubility in ethanol and polar organic solvents ([2]; ethanol and polar organic solvents): insoluble
- solubility in methanol ([2]; methanol): slightly soluble
- solubility in water ([2]; water): soluble

Compound: Nc1nc2c(c(=O)[nH]1)C[C@@H](CCc1ccc(C(=O)N[C@@H](CCC(=O)O)C(=O)O)cc1)CN2 [Lometrexol sodium]
- time to use after reconstitution [3]: ≤ 1 h

Compound: Nc1nc2c(c(=O)[nH]1)CC(CCc1ccc(C(=O)N[C@@H](CCC(=O)O)C(=O)O)cc1)CN2 (stereo partly shown) [lometrexol, 5,10-dideazatetrahydrofolic acid]
- lometrexol potentiation of kinase inhibitor growth inhibition [4]: no observed potentiation
- relative amount of phosphorylated-EGFR per mg protein in the cell lysate ([5]; lometrexol 0.004, 0.02 and 0.1 μg/ml): 37-56 % of control
- relative phosphorylated-EGFR ([5]; lometrexol 0.5 and 2.5 μg/ml): ≥ 3 % of the activated-control
- lometrexol potentiation of kinase inhibitor growth inhibition ([6]; cell line sensitive to EGF stimulation): potentiation is observed
- ATP concentration per million cells [7]: decreased

Compound: COc1cc2ncnc(Nc3cccc(Cl)c3)c2cc1OC [tyrphostin AG1478, 4-(3-chloroanilino)-6,7-dimethoxyquinazoline]
- IC50 in A549 cells in the presence of increasing concentrations of lometrexol [6]: decrease in IC50

Compound: indirubin-3′-monoxime
- IC50 in A549 cells in the presence of increasing concentrations of lometrexol [6]: decrease in IC50
